By IC50 is commonly meant the midpoint of a concentration-inhibition curve.

The structures appear in SMILES notation.

The results in this text go back to BindingDB's records for doi:10.1016/s0960-894x(99)00094-3 (Cold Spring Harbor Laboratory, 1999).

A short description of experiment [1]: Compound was evaluated for concentration that caused 50% inhibition of yeast Farnesyltransferase (expressed as a GST fusion protein in Escherichia coli).
Experiment [2] is described as follows: Compound was evaluated for concentration that caused 50% inhibition of bovine Farnesyltransferase.

In the case of `CSCC[C@H](NC(=O)[C@@H]1CC[C@@H]2CC[C@](Cc3ccccc3)(NC(=O)[C@H](CS)NC(=O)OCC3c4ccccc4-c4ccccc43)C(=O)N21)C(=O)O` [(S)-2-({(3S,6R,8aR)-6-Benzyl-6-[(R)-2-(9H-fluoren-9-ylmethoxycarbonylamino)-3-mercapto-propionylamino]-5-oxo-octahydro-indolizine-3-carbonyl}-amino)-4-methylsulfanyl-butyric acid], half-maximal inhibition in experiment [1] (IC50) was put at 5 µM.

Turning to `CSCC[C@H](NC(=O)[C@H](Cc1ccccc1)NC[C@@H](NC[C@@H](N)CS)C(C)C)C(=O)O` [N-[2(S)-[2(R)-amino-3-mercaptopropylamino]-3-methylbutyl]-Phe-Met-OH], the IC50 in experiment [2] turned out to be 0.021 µM; in experiment [1], 0.3 µM.

`CSCCC(NC(=O)[C@@H]1CC[C@@H]2CC[C@](Cc3ccccc3)(NC(=O)[C@@H](N)CS)C(=O)N21)C(=O)O` (stereo partly drawn) [(S)-2-{[(3S,6R,8aR)-6-((R)-2-Amino-3-mercapto-propionylamino)-6-benzyl-5-oxo-octahydro-indolizine-3-carbonyl]-amino}-4-methylsulfanyl-butyric acid]: the IC50 in experiment [2] was above 200 µM.

Compound `CSCC[C@H](NC(=O)[C@@H]1CC[C@@H]2CCC[C@H](NC(=O)[C@H](N)CS)C(=O)N21)C(=O)O` [(S)-2-{[(3S,6S,9aS)-6-((S)-2-Amino-3-mercapto-propionylamino)-5-oxo-octahydro-pyrrolo[1,2-a]azepine-3-carbonyl]-amino}-4-methylsulfanyl-butyric acid] gave a half-inhibitory concentration (IC50) in experiment [2] above 200 µM.
